Results taken from PubChem BioAssay (NCI).
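48-hour exposure; five concentrations; linearly interpolated endpoints. Definition used: TGI = concentration required for complete inhibition of growth.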

Legend:
Assay in all cases: NCI-60 cell line screen, 48 h
HCT-116 colon = tested on: HCT-116 colon
SK-MEL-5 melanoma = tested on: SK-MEL-5 melanoma
NCI-H23 lung = tested on: NCI-H23 lung
UACC-257 melanoma = tested on: UACC-257 melanoma
UACC-62 melanoma = tested on: UACC-62 melanoma
HL-60(TB) leukemia = tested on: HL-60(TB) leukemia
COLO 205 colon = tested on: COLO 205 colon
HT29 colon = tested on: HT29 colon
OVCAR-5 ovarian = tested on: OVCAR-5 ovarian
CAKI-1 renal = tested on: CAKI-1 renal
A549 NSCLC = tested on: A549 NSCLC
BT-549 breast = tested on: BT-549 breast
SNB-75 CNS = tested on: SNB-75 CNS
SK-OV-3 ovarian = tested on: SK-OV-3 ovarian
UO-31 renal = tested on: UO-31 renal
EKVX NSCLC = tested on: EKVX NSCLC
SF-295 CNS = tested on: SF-295 CNS
MALME-3M melanoma = tested on: MALME-3M melanoma
786-0 renal = tested on: 786-0 renal
KM12 colon = tested on: KM12 colon
OVCAR-4 ovarian = tested on: OVCAR-4 ovarian
CCRF-CEM leukemia = tested on: CCRF-CEM leukemia
DU-145 prostate = tested on: DU-145 prostate
MOLT-4 leukemia = tested on: MOLT-4 leukemia
PC-3 prostate = tested on: PC-3 prostate
K-562 leukemia = tested on: K-562 leukemia
RXF 393 renal = tested on: RXF 393 renal
ACHN renal = tested on: ACHN renal
NCI/ADR-RES ovarian = tested on: NCI/ADR-RES ovarian
SF-268 CNS = tested on: SF-268 CNS
HOP-62 NSCLC = tested on: HOP-62 NSCLC
MDA-N = tested on: MDA-N
TK-10 renal = tested on: TK-10 renal
MCF7 breast = tested on: MCF7 breast
RPMI-8226 leukemia = tested on: RPMI-8226 leukemia
HS 578T breast = tested on: HS 578T breast
SF-539 CNS = tested on: SF-539 CNS
SR leukemia = tested on: SR leukemia
HOP-92 NSCLC = tested on: HOP-92 NSCLC
HCC-2998 colon = tested on: HCC-2998 colon
LOX IMVI melanoma = tested on: LOX IMVI melanoma
SW-620 colon = tested on: SW-620 colon
M14 melanoma = tested on: M14 melanoma
HCT-15 colon = tested on: HCT-15 colon
MDA-MB-435 = tested on: MDA-MB-435
IGROV1 ovarian = tested on: IGROV1 ovarian
NCI-H460 lung = tested on: NCI-H460 lung
OVCAR-3 ovarian = tested on: OVCAR-3 ovarian
U251 CNS = tested on: U251 CNS
SK-MEL-28 melanoma = tested on: SK-MEL-28 melanoma
OVCAR-8 ovarian = tested on: OVCAR-8 ovarian
NCI-H522 lung = tested on: NCI-H522 lung
T-47D breast = tested on: T-47D breast
SNB-19 CNS = tested on: SNB-19 CNS
SK-MEL-2 melanoma = tested on: SK-MEL-2 melanoma
SN12C renal = tested on: SN12C renal
NCI-H226 lung = tested on: NCI-H226 lung
MDA-MB-231 breast = tested on: MDA-MB-231 breast

`O=C(c1ccccc1)c1c(C(F)(F)F)n([O-])c2cc(Cl)c(Cl)cc2[n+]1=O` gave a TGI (HCT-116 colon) of 0.989 µM, a TGI (SK-MEL-5 melanoma) of 5.13 µM and a TGI (NCI-H23 lung) of 1.11 µM. For the same compound, the TGI (UACC-257 melanoma) was 1.97 µM, the TGI (UACC-62 melanoma) was 8.28 µM and the TGI (HL-60(TB) leukemia) was 2.06 µM. The TGI (COLO 205 colon) was 18.8 µM, the TGI (HT29 colon) was 0.966 µM and the TGI (OVCAR-5 ovarian) was 3.41 µM. The TGI (CAKI-1 renal) was 2.93 µM, the TGI (A549 NSCLC) was 4.19 µM and the TGI (BT-549 breast) was 4.8 µM. It also gave a TGI (SNB-75 CNS) of 2.58 µM, a TGI (SK-OV-3 ovarian) of 8.99 µM and a TGI (UO-31 renal) of 4.21 µM. It also gave a TGI (EKVX NSCLC) of 6.96 µM, a TGI (SF-295 CNS) of 7.31 µM and a TGI (MALME-3M melanoma) of 5.33 µM. It also gave a TGI (786-0 renal) of 0.959 µM, a TGI (KM12 colon) of 1.08 µM and a TGI (OVCAR-4 ovarian) of 3.12 µM. For the same compound, the TGI (CCRF-CEM leukemia) was 3.7 µM, the TGI (DU-145 prostate) was 0.985 µM and the TGI (MOLT-4 leukemia) was 1.56 µM. For the same compound, the TGI (PC-3 prostate) was 4.03 µM, the TGI (K-562 leukemia) was 6.09 µM and the TGI (RXF 393 renal) was 5.52 µM. It also gave a TGI (ACHN renal) of 2.03 µM, a TGI (NCI/ADR-RES ovarian) of 6.36 µM and a TGI (SF-268 CNS) of 1.41 µM. It also gave a TGI (HOP-62 NSCLC) of 0.909 µM, a TGI (MDA-N) of 4.17 µM and a TGI (TK-10 renal) of 2.56 µM. It also gave a TGI (MCF7 breast) of 1.24 µM, a TGI (RPMI-8226 leukemia) of 1.15 µM and a TGI (HS 578T breast) of 2.9 µM. For the same compound, the TGI (SF-539 CNS) was 3.88 µM, the TGI (SR leukemia) was 0.724 µM and the TGI (HOP-92 NSCLC) was 19.9 µM. The TGI (HCC-2998 colon) was 4.11 µM, the TGI (LOX IMVI melanoma) was 2.46 µM and the TGI (SW-620 colon) was 6.72 µM. The TGI (M14 melanoma) was 3.2 µM, the TGI (HCT-15 colon) was 2.76 µM and the TGI (MDA-MB-435) was 3.08 µM. For the same compound, the TGI (IGROV1 ovarian) was 0.984 µM, the TGI (NCI-H460 lung) was 4.53 µM and the TGI (OVCAR-3 ovarian) was 0.815 µM. The TGI (U251 CNS) was 2.71 µM, the TGI (SK-MEL-28 melanoma) was 7.19 µM and the TGI (OVCAR-8 ovarian) was 20.9 µM. For the same compound, the TGI (NCI-H522 lung) was 1.08 µM, the TGI (T-47D breast) was 3.03 µM and the TGI (SNB-19 CNS) was 3 µM. For the same compound, the TGI (SK-MEL-2 melanoma) was 7.7 µM, the TGI (SN12C renal) was 1.87 µM and the TGI (NCI-H226 lung) was 13.7 µM.
`CCN(CC)C(=S)N/N=C/c1ccccn1` gave a TGI (SK-MEL-5 melanoma) of 0.542 µM, a TGI (UACC-62 melanoma) of 0.392 µM and a TGI (HL-60(TB) leukemia) of 4.09 µM. For the same compound, the TGI (COLO 205 colon) was > 53.9 µM, the TGI (HT29 colon) was > 100 µM and the TGI (OVCAR-5 ovarian) was > 100 µM. The TGI (CAKI-1 renal) was > 100 µM, the TGI (A549 NSCLC) was 1.39 µM and the TGI (BT-549 breast) was > 100 µM. The TGI (SNB-75 CNS) was 44.8 µM, the TGI (UO-31 renal) was 2.1 µM and the TGI (MDA-MB-231 breast) was > 100 µM. For the same compound, the TGI (EKVX NSCLC) was > 100 µM, the TGI (SF-295 CNS) was > 77.1 µM and the TGI (MALME-3M melanoma) was > 100 µM. For the same compound, the TGI (786-0 renal) was 19 µM, the TGI (KM12 colon) was > 100 µM and the TGI (OVCAR-4 ovarian) was > 100 µM. The TGI (CCRF-CEM leukemia) was > 100 µM, the TGI (DU-145 prostate) was 1.27 µM and the TGI (MOLT-4 leukemia) was > 100 µM. The TGI (PC-3 prostate) was > 100 µM, the TGI (K-562 leukemia) was > 100 µM and the TGI (ACHN renal) was 10.1 µM. The TGI (NCI/ADR-RES ovarian) was 0.692 µM, the TGI (SF-268 CNS) was > 66.4 µM and the TGI (MDA-N) was > 100 µM. The TGI (MCF7 breast) was 26 µM, the TGI (RPMI-8226 leukemia) was > 100 µM and the TGI (HS 578T breast) was > 100 µM. For the same compound, the TGI (SF-539 CNS) was 0.377 µM, the TGI (SR leukemia) was > 54.8 µM and the TGI (HOP-92 NSCLC) was 2.44 µM. For the same compound, the TGI (HCC-2998 colon) was > 100 µM, the TGI (LOX IMVI melanoma) was 0.27 µM and the TGI (SW-620 colon) was > 100 µM. For the same compound, the TGI (M14 melanoma) was 0.349 µM, the TGI (HCT-15 colon) was > 100 µM and the TGI (MDA-MB-435) was > 100 µM. The TGI (IGROV1 ovarian) was 11.7 µM, the TGI (OVCAR-3 ovarian) was 11 µM and the TGI (U251 CNS) was > 100 µM. The TGI (SK-MEL-28 melanoma) was > 100 µM, the TGI (NCI-H522 lung) was 1.53 µM and the TGI (T-47D breast) was > 100 µM. For the same compound, the TGI (SNB-19 CNS) was > 100 µM, the TGI (SK-MEL-2 melanoma) was > 100 µM and the TGI (NCI-H226 lung) was 0.989 µM.
